# Assays:
# [1] = molecular target: T1, Retinoic acid receptor RXR-gamma (Homo sapiens, UniProt P48443); assay: Inhibition of [3H]-9-cis RA binding to Retinoid X receptor RXR gamma
# T1 sequence (P48443 whole entry): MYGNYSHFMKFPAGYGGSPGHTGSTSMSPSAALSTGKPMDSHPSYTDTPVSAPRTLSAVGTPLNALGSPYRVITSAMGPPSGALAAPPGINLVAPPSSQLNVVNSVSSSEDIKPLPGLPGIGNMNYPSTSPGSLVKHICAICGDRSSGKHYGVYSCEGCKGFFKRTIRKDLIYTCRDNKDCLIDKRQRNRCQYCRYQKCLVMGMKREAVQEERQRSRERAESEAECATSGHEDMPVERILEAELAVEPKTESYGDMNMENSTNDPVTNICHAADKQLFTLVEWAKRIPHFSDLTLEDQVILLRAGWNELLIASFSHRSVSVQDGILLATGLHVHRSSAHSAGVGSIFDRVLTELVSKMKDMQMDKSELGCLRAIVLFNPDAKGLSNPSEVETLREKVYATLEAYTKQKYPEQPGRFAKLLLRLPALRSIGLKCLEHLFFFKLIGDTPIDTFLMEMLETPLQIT
# [2] = molecular target: T2, Retinoic acid receptor RXR-beta (Homo sapiens, UniProt P28702); assay: Inhibition of [3H]-9-cis RA binding to Retinoid X receptor RXR beta
# T2 sequence (P28702 whole entry): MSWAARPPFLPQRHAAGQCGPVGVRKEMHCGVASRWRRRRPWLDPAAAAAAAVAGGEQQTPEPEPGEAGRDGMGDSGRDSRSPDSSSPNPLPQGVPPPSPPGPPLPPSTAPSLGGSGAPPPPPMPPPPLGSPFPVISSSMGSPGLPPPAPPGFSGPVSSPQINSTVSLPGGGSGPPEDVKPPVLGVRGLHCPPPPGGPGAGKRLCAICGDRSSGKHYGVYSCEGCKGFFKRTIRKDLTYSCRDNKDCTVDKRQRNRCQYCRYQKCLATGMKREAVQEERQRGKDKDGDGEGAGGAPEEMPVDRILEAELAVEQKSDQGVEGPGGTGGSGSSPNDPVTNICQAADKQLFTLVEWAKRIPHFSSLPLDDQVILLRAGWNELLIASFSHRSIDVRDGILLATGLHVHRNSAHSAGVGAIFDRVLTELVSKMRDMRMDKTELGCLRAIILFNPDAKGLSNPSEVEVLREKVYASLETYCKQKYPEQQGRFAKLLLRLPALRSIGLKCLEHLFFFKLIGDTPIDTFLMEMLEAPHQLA
Kd [1] [µM],Kd [2] [µM],SMILES
0.014,0.015,CC1=C(/C=C/c2occc2/C=C/C(C)=C/C(=O)O)C(C)(C)CCC1
0.035,0.053,CC1=C(/C=C/c2ccccc2/C=C/C(C)=C/C(=O)O)C(C)(C)CCC1

# Reference: ChEMBL document CHEMBL1131949, “Stereoselective synthesis and receptor activity of conformationally defined retinoid X receptor selective ligands” (Bioorg Med Chem Lett, 1999)
